Assay results as given in patent publication US20100240589A1, “DIASTEREOMERIC PEPTIDES USEFUL AS INHIBITORS OF MEMBRANE PROTEIN ASSEMBLY” (YEDA RESEARCH AND DEVELOPMENT CO., LTD. AT THE WEIZMANN …, priority 2003, published 2010).

Tested on: CP362 bacteria overexpressing the Tar receptor (pNT201)
Assay: Swarm assay on TB semi-solid agar (chemotaxis)
Type: cell-based, Escherichia coli
Details: 20 μM peptide, 35° C.

Sequence | expansion speed / chemotactic behavior of the bacteria
KKKMVLGVFALLFLIGGSLKK [F/G mutant peptide] | no significant effect
KKKMVLGVFALLQLISGSLKK [Tar-1 all-L, peptide corresponding to the transmembrane domain 1 of Tar, reference compound] | significantly reduced
